Among the data in ChEMBL document CHEMBL4616609, “Potent non-hydroxamate inhibitors of histone deacetylase-8: Role and scope of an isoindolin-2-yl linker with an α-amino amide as the zinc-binding unit” (Bioorg Med Chem Lett, 2020) are IC50 values, retold here.

One assay addresses T1, Histone deacetylase 8 (Homo sapiens, UniProt Q9BY41).
T1 sequence (Q9BY41 whole entry): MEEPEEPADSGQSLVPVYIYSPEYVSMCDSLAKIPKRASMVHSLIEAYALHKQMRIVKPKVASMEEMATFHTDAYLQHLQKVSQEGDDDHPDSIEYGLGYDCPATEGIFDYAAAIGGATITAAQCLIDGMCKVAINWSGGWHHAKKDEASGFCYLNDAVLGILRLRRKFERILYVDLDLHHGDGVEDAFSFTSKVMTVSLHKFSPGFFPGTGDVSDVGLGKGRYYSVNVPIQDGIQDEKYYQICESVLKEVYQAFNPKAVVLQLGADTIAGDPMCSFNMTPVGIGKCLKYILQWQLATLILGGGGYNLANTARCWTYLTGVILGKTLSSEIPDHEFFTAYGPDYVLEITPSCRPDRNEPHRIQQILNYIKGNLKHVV
As to the kind of experiment: Inhibition of HDAC8 (unknown origin).

The target of another assay is Histone deacetylase 2 (Homo sapiens, UniProt Q92769). As to the kind of experiment: Inhibition of HDAC2 (unknown origin).
Assay [1] addresses T2, Protein deacetylase HDAC6 (Homo sapiens, UniProt Q9UBN7).
T2 sequence (Q9UBN7 whole entry): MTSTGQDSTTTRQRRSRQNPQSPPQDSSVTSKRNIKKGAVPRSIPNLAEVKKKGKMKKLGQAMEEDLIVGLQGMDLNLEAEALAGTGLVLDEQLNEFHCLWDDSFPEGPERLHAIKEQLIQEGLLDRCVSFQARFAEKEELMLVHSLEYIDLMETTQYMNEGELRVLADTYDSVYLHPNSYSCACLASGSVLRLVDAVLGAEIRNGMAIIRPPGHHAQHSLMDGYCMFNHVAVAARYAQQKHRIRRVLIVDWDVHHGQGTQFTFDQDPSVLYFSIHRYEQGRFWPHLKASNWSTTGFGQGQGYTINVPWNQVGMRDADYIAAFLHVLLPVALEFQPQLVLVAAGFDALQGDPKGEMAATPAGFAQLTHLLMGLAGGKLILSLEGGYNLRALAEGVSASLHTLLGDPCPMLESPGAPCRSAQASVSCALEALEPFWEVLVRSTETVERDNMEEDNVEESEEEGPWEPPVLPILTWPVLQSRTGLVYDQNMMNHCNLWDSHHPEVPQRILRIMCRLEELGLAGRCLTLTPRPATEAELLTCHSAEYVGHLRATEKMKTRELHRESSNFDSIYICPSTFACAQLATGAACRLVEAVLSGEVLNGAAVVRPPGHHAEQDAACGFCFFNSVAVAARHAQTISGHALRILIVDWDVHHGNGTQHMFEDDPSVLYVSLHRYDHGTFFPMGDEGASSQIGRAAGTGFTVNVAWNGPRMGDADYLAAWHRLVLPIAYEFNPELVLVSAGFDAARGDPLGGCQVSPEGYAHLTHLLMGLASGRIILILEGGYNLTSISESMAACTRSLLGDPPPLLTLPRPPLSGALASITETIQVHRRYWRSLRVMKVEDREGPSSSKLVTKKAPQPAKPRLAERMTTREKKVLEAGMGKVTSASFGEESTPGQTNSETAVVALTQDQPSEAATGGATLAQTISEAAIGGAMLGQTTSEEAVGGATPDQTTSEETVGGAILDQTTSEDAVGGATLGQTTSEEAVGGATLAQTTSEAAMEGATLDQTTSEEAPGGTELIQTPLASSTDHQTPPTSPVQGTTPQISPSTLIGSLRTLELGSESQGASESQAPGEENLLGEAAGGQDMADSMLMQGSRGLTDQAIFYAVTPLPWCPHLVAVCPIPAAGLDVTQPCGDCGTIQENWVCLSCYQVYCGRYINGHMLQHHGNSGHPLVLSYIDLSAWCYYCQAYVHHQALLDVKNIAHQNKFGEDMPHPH
As to the kind of experiment: Inhibition of HDAC6 (unknown origin).

The next assay concerns the target Histone deacetylase 1 (Homo sapiens, UniProt Q13547). As to the kind of experiment: Inhibition of HDAC1 (unknown origin).

Usually IC50 stands for the midpoint of a concentration-inhibition curve. A high value points to lower potency.

Histone deacetylase 2, sequence (Q92769 whole entry): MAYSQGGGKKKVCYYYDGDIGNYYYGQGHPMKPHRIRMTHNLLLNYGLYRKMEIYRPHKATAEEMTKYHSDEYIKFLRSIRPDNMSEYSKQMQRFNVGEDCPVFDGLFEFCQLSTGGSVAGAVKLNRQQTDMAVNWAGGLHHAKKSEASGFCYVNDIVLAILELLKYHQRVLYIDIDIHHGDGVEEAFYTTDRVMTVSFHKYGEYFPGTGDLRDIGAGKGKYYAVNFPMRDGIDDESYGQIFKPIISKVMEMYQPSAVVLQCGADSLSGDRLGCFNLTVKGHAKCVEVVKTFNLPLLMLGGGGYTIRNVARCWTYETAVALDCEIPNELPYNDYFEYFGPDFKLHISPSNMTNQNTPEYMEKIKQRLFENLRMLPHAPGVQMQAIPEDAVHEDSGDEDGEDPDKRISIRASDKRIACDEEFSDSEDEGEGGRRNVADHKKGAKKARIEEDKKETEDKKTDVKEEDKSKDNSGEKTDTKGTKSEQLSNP
Histone deacetylase 1, sequence (Q13547 whole entry): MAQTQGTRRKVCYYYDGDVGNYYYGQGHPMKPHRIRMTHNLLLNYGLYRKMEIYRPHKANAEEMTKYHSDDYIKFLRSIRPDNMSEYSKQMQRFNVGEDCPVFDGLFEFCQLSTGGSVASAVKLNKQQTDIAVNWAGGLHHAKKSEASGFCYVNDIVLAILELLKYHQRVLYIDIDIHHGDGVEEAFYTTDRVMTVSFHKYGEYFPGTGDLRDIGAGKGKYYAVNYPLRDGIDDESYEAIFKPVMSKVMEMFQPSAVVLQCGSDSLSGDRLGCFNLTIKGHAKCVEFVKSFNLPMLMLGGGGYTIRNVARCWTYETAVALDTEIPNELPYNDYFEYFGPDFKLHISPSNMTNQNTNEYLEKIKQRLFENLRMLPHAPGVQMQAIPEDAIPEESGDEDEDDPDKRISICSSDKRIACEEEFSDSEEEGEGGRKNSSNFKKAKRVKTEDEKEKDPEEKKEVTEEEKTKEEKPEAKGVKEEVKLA

`CN1CCN(C(=O)[C@H](N)Cc2ccccc2)CC1`: the IC50 on Histone deacetylase 8 stood at 11 µM.
On the same count and under the same terms, with `N[C@H](Cc1ccccc1)C(=O)N1CCc2ccccc2C1` the figure was 10.7 µM; with `Nc1ccc2c(c1)CN(C(=O)[C@H](N)Cc1ccc(Cl)cc1Cl)C2`, 0.13 µM; with `N[C@H](Cc1ccc(Cl)cc1Cl)C(=O)O`, 410 µM.
The same measure, in the same setting: the value for `N[C@H](Cc1ccc(Cl)cc1Cl)C(=O)NCc1cccs1` was 3 µM.
`N[C@H](Cc1ccc(Cl)cc1Cl)C(=O)NCc1ccccc1` came in with an IC50 against Histone deacetylase 8 of 4.28 µM.
Take `CC(=O)Nc1ccc2c(c1)CN(C(=O)[C@H](N)Cc1ccc(Cl)cc1Cl)C2`: the IC50 at Histone deacetylase 2 is greater than 30 µM; in assay [1] it was greater than 30 µM; on Histone deacetylase 8, 0.101 µM; on Histone deacetylase 1, 8.8 µM.
In turn, `N[C@H](Cc1ccccc1)C(=O)N1CCN(c2ccccc2)CC1` displayed an IC50 on Histone deacetylase 8 greater than 600 µM.
Still for that read-out and setting: the value for `N[C@H](Cc1ccc(Cl)cc1Cl)C(=O)Nc1ccc2[nH]c3ccccc3c2c1` was 10.5 µM.
The same measure, in the same setting: with `CNC(=O)c1ccc2c(c1)CN(C(=O)[C@H](N)Cc1ccc(Cl)cc1Cl)C2` the figure was 0.258 µM; with `N[C@H](Cc1ccc(Cl)cc1Cl)C(=O)NCCc1ccc(O)c(O)c1`, 2.07 µM; with `C[C@@H](NC(=O)[C@H](N)Cc1ccc(Cl)cc1Cl)c1ccccc1`, 25.3 µM.
Still for that read-out and setting: with `N[C@H](Cc1ccc(Cl)cc1Cl)C(=O)NCCc1c[nH]c2ccc(O)cc12` the figure was 1.77 µM.
`N[C@H](Cc1ccc(O)cc1)C(=O)N1Cc2ccccc2C1` registered a 50% inhibitory concentration (IC50) against Histone deacetylase 8 of 4.28 µM.
Same read-out and setting: the value for `N[C@H](Cc1ccc(Cl)cc1Cl)C(=O)NCCc1ccccc1` was 2.5 µM.
The same measure, in the same setting: the value for `N[C@H](Cc1ccc(O)cc1)C(=O)N1CCc2ccccc2C1` was 21.3 µM; that for `N[C@H](Cc1ccc(Cl)cc1Cl)C(=O)NCCc1cccnc1` was 3.85 µM; that for `N[C@H](Cc1ccc(Cl)cc1Cl)C(=O)NCCc1ccc(O)cc1` was 1.25 µM.
Still for that read-out and setting: the value for `CNC(=O)[C@H](N)Cc1ccc(Cl)cc1Cl` was 16.5 µM.
`COc1ccc(CNC(=O)[C@H](N)Cc2ccc(Cl)cc2Cl)cc1` came in with an IC50 at Histone deacetylase 8 of 16.6 µM.
At Histone deacetylase 8, `N[C@H](Cc1ccc(Cl)cc1Cl)C(=O)NCCCc1ccccc1` showed an IC50 of 2.01 µM.
On Histone deacetylase 8, `N[C@H](Cc1ccc(Cl)cc1Cl)C(=O)N1Cc2ccc(NC(=O)CCc3ccccc3)cc2C1` registered an IC50 of 0.259 µM.
Consider `C[C@H](NC(=O)[C@H](N)Cc1ccc(Cl)cc1Cl)c1ccccc1`, for which the IC50 at Histone deacetylase 8 is 76.4 µM.
As for `CNCc1ccc2c(c1)CN(C(=O)[C@H](N)Cc1ccc(Cl)cc1Cl)C2`, at Histone deacetylase 8, the IC50 was found to be 0.176 µM.
`COc1ccc(NC(=O)[C@H](N)Cc2ccc(Cl)cc2Cl)cc1` gave an IC50 against Histone deacetylase 8 of 2.67 µM.
At Histone deacetylase 8, `N[C@H](Cc1ccc(Cl)cc1Cl)C(=O)N1Cc2ccc(NC(=O)Cc3ccccc3)cc2C1` yielded an IC50 of 0.232 µM.
The same measure, in the same setting: the value for `N[C@H](Cc1ccc(Cl)cc1Cl)C(=O)NC1Cc2ccccc2C1` was 8.76 µM; that for `N[C@H](Cc1ccc(Cl)cc1Cl)C(=O)NCCc1c[nH]c2ccccc12` was 0.97 µM; that for `N[C@H](Cc1ccc(Cl)cc1Cl)C(=O)N1Cc2ccccc2C1` was 0.21 µM.
Compound `N[C@H](Cc1ccc(Cl)cc1Cl)C(=O)N1CCc2ccccc2C1` had an IC50 against Histone deacetylase 8 of 2.06 µM.
Still for that read-out and setting: the value for `N[C@H](Cc1ccccc1)C(=O)N1Cc2ccccc2C1` was 1.15 µM.
